From US7989430B2, “Antibacterial agents” (priority 2005, dated 2011)
≈ marks a conversion by molar mass, not a printed value.

Key:
M. tuberculosis H37Rv [1] = conditions: Ferreras et al., Nature Chem. Biol. 2005, likely the free acid form; cited from earlier work
M. tuberculosis H37Rv [2] = experiment: M. tuberculosis H37Rv MIC assay (whole-cell); assay type: cell-based, Mycobacterium tuberculosis
[3] = Chemical stability on storage; conditions: salt form prepared in Example 1 vs free acid
MbtA = MbtA (Mycobacterium tuberculosis, UniProt P71716); conditions: data not shown
MbtA, sequence (P71716 whole entry): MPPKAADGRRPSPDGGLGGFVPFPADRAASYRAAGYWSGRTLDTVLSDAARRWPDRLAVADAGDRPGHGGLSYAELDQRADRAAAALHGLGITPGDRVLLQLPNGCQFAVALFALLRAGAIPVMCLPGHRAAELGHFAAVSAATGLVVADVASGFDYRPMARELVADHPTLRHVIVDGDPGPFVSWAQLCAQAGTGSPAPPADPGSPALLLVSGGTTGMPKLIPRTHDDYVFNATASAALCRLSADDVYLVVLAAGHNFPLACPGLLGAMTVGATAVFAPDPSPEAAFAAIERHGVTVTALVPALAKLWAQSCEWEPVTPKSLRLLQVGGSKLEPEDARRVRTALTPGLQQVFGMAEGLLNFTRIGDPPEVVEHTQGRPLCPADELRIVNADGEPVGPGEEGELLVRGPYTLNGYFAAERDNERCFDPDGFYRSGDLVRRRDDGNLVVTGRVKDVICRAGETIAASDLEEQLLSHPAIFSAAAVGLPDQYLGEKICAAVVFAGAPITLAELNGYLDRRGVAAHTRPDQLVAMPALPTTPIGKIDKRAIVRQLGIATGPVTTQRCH

[4] = 50% aq TFA, 3 h

For `Nc1ncnc2c1ncn2[C@@H]1O[C@H](COS(=O)(=O)NC(=O)c2ccc(O)c(O)c2)[C@@H](O)[C@H]1O`, the melting point was > 190 °C (dec.).
In the case of `Nc1ncnc2c1ncn2[C@@H]1O[C@H](COS(=O)(=O)NC(=O)c2ccccc2O)[C@@H](O)[C@H]1O` [Compound 34, 5′-O—(N-(2-hydroxybenzoyl)sulfamoyl)adenosine], the MIC50 (M. tuberculosis H37Rv [1]) is listed as 2.2 µM (≈ 1.03 µg/mL).
For `CCN(CC)CC.Nc1ncnc2c1ncn2[C@@H]1O[C@H](COS(=O)(=O)NC(=O)c2ccccc2O)[C@@H](O)[C@H]1O` [Example 1, 5′-O—(N-(2-Hydroxybenzoyl)sulfamoyl)-adenosine triethylammonium salt], the “potency against M. tuberculosis H37Rv relative to the free acid” value (M. tuberculosis H37Rv [2]; salt form vs free acid) was “about 28 times” and the “stability relative to the free acid” value [3] was “significantly more stable”.
In the case of `CCN(CC)CC.Nc1ncnc2c1ncn2[C@H]1C[C@H](O)[C@@H](COS(=O)(=O)NC(=O)c2ccccc2O)O1` [Example 42, 2′-Deoxy-5′-O—[N-(2-hydroxybenzoyl)sulfamoyl]-adenosine triethylammonium salt], the “activity in the in vitro enzyme assay” value (MbtA) is reported as “potent activity”, the “activity in whole-cell assay of M. tuberculosis” value (M. tuberculosis H37Rv [2]; data not shown) is reported as “potent activity” and the “stability under acidic conditions” value [4] is reported as “unstable”.
